# Legend:
# TRPV1 = target: T1, TRPV1 (Homo sapiens, UniProt Q8NER1); assay type: cell-based
# T1 construct: expressed in transfected cells; host or cells: Xenopus laevis oocytes (cRNA injection)
# C57BL/6J mice [1] = test: Elevated Plus Maze (EPM); assay type: in vivo, mouse; settings: i.p., OS 2 mg/kg, WIN 0.5 mg/kg
# Experimental: (§1) Animal housing. Forty-eight Male C57BL/6J mice were purchased from Janvier Labs (Le Genest-Saint-Isle, France) and were time-specifically housed in a 12 h light-dark cycle (lights on at 7 am), with ad libitum water and food in conditioned rooms (22 °C, humidity ~60%).
# Behavior assays. All mice were subjected to a behavioral test battery that consisted of several general performance tasks of locomotor activity, exploratory and anxiety-like behavior, and learning and memory. Mice were divided into four groups: Vehicle, OS (2 mg/kg), WIN55 (0.5 mg/kg), or OS + WIN. Each group consisted of 7–14 mice that received two i.p injections before each test, with a 10 min interval between each injection. Veh + Veh were injected with PBS. Veh + WIN were injected with PBS and WIN55. Veh + OS were injected with PBS and OS. OS + WIN were injected with OS and WIN55. PBS was used as vehicle as it was used for dilution of drugs. […]
# Elevated Plus Maze (EPM): EPM was used to assess the effects of OS, WIN, and OS + WIN on anxiety-like behavior. […] Time in open and closed arms was measured over 10 min. Anxiety index (AI) was calculated using the following equation: AI = 1 − [([time the animal remained in the open arms (seconds)/test duration] + [input frequency in the open arms/total number of entries])/2]. […]
# C57BL/6J mice [2] = test: Morris Water Maze (MWM); assay type: in vivo, mouse; settings: i.p., OS 2 mg/kg
# Experimental: as §1
# (§2) Behavior assays. All mice were subjected to a behavioral test battery that consisted of several general performance tasks of locomotor activity, exploratory and anxiety-like behavior, and learning and memory. Mice were divided into four groups: Vehicle, OS (2 mg/kg), WIN55 (0.5 mg/kg), or OS + WIN. Each group consisted of 7–14 mice that received two i.p injections before each test, with a 10 min interval between each injection. Veh + Veh were injected with PBS. Veh + WIN were injected with PBS and WIN55. Veh + OS were injected with PBS and OS. OS + WIN were injected with OS and WIN55. PBS was used as vehicle as it was used for dilution of drugs. Tests were performed in the order described below after 10 min of the last injection, with a 24 h interval between each test.
# Morris Water Maze (MWM): MWM [32] was used to assess the effects of OS, WIN, and OS + WIN in memory one day after the EPM test. MWM is a gold standard test to assess learning and memory consisting of 10 days of training and two probe trials in a pool with water at a temperature of 26 °C, with one submersed platform invisible to mice. Each mouse could try to find the platform for 100 s, four times per day, with an inter-trial interval of 15–30 min. In each trial, animals were released randomly from each of the four starting positions. This protocol of training was repeated for ten days (training sessions). The platform was removed on the 6th and 11th days, and the animals were left free to swim for 100 s (probe trials). Right after the first probe trial (day 6), animals were trained again with the platform at the same place. During the training sessions, the mean latency to find the platform for the session was calculated for each animal as the average of the four trials of the day. During the probe trials, the pool was divided into four equal virtual quadrants, and the time spent in the target quadrant (TQ) (i.e., the quadrant where the platform was located during the training sessions) was assessed as a measure of memory retention. For this test, we used Veh (n = 9), OS (n = 8), WIN (n = 8), OS + WIN (n = 14).
# CB2 receptor (hCB2) = target: T2, CB2 receptor (hCB2) (Homo sapiens, UniProt P34972); test: Two-electrode voltage-clamp, CB2-GIRK1/GIRK2-RGS4 coupling system expressed in Xenopus oocytes; assay type: cell-based
# T2 construct: expressed in transfected cells; host or cells: Xenopus laevis oocytes (cRNA injection)
# T2 sequence (P34972 whole entry): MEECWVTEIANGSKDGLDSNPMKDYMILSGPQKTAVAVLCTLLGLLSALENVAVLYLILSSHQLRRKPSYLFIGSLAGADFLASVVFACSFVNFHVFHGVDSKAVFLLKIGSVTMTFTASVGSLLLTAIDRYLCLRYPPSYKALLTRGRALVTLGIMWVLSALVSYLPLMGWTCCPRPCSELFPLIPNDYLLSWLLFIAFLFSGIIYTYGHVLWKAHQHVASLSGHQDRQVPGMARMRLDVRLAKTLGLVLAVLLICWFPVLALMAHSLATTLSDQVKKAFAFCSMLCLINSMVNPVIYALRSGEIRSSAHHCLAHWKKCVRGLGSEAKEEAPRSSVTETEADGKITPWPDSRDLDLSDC
# KV7.1 = KV7.1 (Homo sapiens, UniProt P51787)
# Sequence of KV7.1 (P51787 whole entry): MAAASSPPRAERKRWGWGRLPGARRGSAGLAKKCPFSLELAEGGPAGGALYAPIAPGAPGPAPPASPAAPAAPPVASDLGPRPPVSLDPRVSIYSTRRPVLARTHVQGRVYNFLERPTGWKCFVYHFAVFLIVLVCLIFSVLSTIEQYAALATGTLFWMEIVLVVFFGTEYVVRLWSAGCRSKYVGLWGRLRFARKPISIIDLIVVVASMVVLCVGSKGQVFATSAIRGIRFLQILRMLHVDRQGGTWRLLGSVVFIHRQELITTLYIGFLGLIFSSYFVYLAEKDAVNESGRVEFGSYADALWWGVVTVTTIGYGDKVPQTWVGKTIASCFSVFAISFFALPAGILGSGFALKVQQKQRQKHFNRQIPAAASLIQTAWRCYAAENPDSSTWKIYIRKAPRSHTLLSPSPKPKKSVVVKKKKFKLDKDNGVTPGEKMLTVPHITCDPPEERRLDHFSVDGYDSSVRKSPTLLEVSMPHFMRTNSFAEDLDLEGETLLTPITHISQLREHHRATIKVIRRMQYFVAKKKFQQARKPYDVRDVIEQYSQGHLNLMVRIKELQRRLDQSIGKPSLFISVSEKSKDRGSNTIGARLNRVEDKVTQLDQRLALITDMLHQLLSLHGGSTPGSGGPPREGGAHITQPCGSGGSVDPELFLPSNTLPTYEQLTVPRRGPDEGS
# chimeric CB1/2 receptor = test: Two-electrode voltage-clamp, chimeric CB1/2-GIRK1/GIRK2-RGS4 coupling system expressed in oocytes; settings: 100 μM OS + 0.5 μM WIN55,212-2
# C57BL/6J mice [3] = test: Home cage activity test; assay type: in vivo, mouse; settings: i.p., OS 2 mg/kg
# Experimental: as §1, §2
# Cage activity assessment: At P60, animals were moved to the cage activity room for one hour before injections for habituation.. The cage activity assessment consists of placing the mice in a transparent box which is placed between three infrared sensors (two on the cage’s side and one in its front) that count how many times the mice cross the infrared beams. The times of beams crossed in each 30 min were counted over a period of 24 h and used as a locomotor activity measurement. In addition, we also compared the total number of beams crossed during the day and night period. For this test, we used Veh (n = 10), OS (n = 9), WIN (n = 11), OS + WIN (n = 8).
# non-injected oocytes = test: Two-electrode voltage-clamp on non-injected oocytes; assay type: cell-based, Xenopus laevis; settings: 100 μM OS, ND96
# From the text: Isolation of Xenopus laevis oocytes. All procedures for the use and handling of adult female Xenopus laevis frogs (CRB Xénopes, Rennes, France) were approved by the Animal Ethics Committee of the KU Leuven (Project No. P186/2019) following regulations of the European Union (EU) concerning the welfare of laboratory animals as declared in Directive 2010/63/EU. Oocytes were isolated as described previously. Stage V–VI Xenopus laevis oocytes were isolated by partial ovariectomy. The animals were anesthetized by a 15 min submersion in 0.1% tricaine methane sulfonate (Sigma-Aldrich Chemical, St. Louis, MO, USA) solution (pH 7.0). The oocytes were enzymatically defolliculated by collagenase (3 mg/mL) (Sigma-Aldrich Chemical, St. Louis, MO, USA) digestion at 16 °C on a rocker platform in a Ca^2+-free ND96 solution. Isolated stage V–VI oocytes were then maintained in ND96 solution containing Theophylline and Gentamicin at 16 °C.
# Electrophysiological measurements.
# T1 sequence (Q8NER1 whole entry): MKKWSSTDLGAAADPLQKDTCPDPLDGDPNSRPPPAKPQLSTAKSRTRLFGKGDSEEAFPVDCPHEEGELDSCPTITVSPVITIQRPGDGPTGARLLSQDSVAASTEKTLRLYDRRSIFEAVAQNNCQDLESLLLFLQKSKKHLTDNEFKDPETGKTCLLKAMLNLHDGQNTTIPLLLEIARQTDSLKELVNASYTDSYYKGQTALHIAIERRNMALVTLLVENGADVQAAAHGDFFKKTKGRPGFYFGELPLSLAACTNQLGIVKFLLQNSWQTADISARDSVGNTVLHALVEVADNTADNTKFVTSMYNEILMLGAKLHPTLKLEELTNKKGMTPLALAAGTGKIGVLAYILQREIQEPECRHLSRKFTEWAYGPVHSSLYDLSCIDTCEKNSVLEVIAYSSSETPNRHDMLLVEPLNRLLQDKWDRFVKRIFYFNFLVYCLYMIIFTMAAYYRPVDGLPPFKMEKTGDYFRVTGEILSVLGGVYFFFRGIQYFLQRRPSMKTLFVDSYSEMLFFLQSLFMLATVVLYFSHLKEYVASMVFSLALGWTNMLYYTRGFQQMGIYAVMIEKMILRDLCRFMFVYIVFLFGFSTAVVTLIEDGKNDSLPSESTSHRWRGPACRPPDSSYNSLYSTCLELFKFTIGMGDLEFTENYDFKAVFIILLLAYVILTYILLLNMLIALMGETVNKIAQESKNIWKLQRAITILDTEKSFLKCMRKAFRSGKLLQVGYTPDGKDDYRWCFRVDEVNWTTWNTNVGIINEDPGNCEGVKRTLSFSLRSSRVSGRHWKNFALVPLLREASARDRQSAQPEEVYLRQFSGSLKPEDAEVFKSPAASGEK
smiles,measurement,setting,value
"CCCCCCCC/C=C\CCCCCCCC(=O)NCCc1c[nH]c2ccc(O)cc12 [OS, oleoyl serotonin]",Activity in selectivity screening,TRPV1,did not show significant activity
same,"Anxiety-like behavior (time in open and closed arms, anxiety index)",C57BL/6J mice [1],did not exhibit significant effects
same,"Time spent in the target quadrant (TQ), first probe trial",C57BL/6J mice [2]; 100 s trial,more than 25 s
same,Performance in first probe trial vs control (time in target quadrant),C57BL/6J mice [2]; day 6,performed worse than the control
same,"Effect on WIN55,212-2-induced inward K+ currents (IK,WIN+OS)","CB2 receptor (hCB2); 100 μM OS co-applied with 0.3 μM WIN55,212-2",inhibited
same,"Effect of OS alone on IK,basal","CB2 receptor (hCB2); 100 μM OS, 20–30 s, in HK","did not change the response of IK,basal"
same,IC50,"CB2 receptor (hCB2); IC50 of blocking CB2 receptor activated by WIN55,212-2, 0.03 μM WIN + OS",14.8 µM
same,IC50,"CB2 receptor (hCB2); IC50 of blocking CB2 receptor activated by WIN55,212-2, 0.1 μM WIN + OS",13.2 µM
same,IC50,"CB2 receptor (hCB2); IC50 of blocking CB2 receptor activated by WIN55,212-2, 0.3 μM WIN + OS",12.1 µM
same,IC50,"CB2 receptor (hCB2); IC50 of blocking CB2 receptor activated by WIN55,212-2, 1 μM WIN + OS",10.4 µM
same,Mode of antagonism,"CB2 receptor (hCB2); against WIN55,212-2",non-competitively blocked
same,Activity in selectivity screening,KV7.1,did not show significant activity
same,"Effect on WIN55,212-2-induced receptor-dependent inward K+ currents (IK,WIN)",chimeric CB1/2 receptor,did not change the response
same,Overall locomotion during the night in home cage vs control,C57BL/6J mice [3],moved more in the cage compared to the control group
same,Cage activity (beam crossings) 2 h after the beginning of night phase,"C57BL/6J mice [3]; WIN 0.5 mg/kg, 21 h",notably increased cage activity
same,Activity on non-injected oocytes,non-injected oocytes,did not show activity

# From publication PMC10887214 (Biomedicines, 2024)
